Source: patent US9365576B2, “Pyrrolopyrrolidinone compounds” (Novartis AG, priority 2012, dated 2016)

Target: human MDM2 protein (amino acids 2-188) (Homo sapiens (Human), UniProt Q00987)
Experiment: TR-FRET assay, p53-MDM2 Assay 2 (modified)
Assay type: binding
Details: TR-FRET; 0.1 nM MDM2, 0.1 nM Europium labeled streptavidin, Tecan genios Pro reader; read-out: IC50 p53-MDM2 Assay 2
How it was run: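 IC50 values were curve-fitted from the time-resolved 665/620 nm emission ratio after 340 nm excitation. The assay combined 0.625 nM europium-streptavidin donor with 1.25 nM C-terminally biotinylated MDM2 2–188 (15 min, RT), followed by 15 min with 10 nM Cy5-labeled p53 18–26 acceptor peptide.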

Chain of human MDM2 protein (amino acids 2-188) (Q00987 2-188): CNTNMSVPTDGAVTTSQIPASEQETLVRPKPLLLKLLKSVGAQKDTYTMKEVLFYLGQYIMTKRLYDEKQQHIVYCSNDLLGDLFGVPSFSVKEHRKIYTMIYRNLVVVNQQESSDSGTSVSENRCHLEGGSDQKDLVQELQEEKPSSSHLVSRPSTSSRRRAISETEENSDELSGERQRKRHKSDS

Compared with `COc1ccc(C(N)=O)cc1-c1cc2c(n1C(C)C)C(c1ccc(Cl)cc1)N(c1cc(Cl)ccc1C)C2=O` (stereo not shown) [Example 61, 3-[5-(5-Chloro-2-methyl-phenyl)-6-(4-chloro-phenyl)-1-isopropyl-4-oxo-1,4,5,6-tetrahydro-pyrrolo[3,4-b]pyrrol-2-yl]-4-methoxy-benzamide], `CNC(=O)c1ccc(OC)c(-c2cc3c(n2C(C)C)[C@@H](c2ccc(Cl)cc2)N(c2cc(Cl)ccc2C)C3=O)c1` [Example 19, 3-[(R)-5-(5-Chloro-2-methyl-phenyl)-6-(4-chloro-phenyl)-1-isopropyl-4-oxo-1,4,5,6-tetrahydro-pyrrolo[3,4-b]pyrrol-2-yl]-4-methoxy-N-methyl-benzamide] is 1700-fold higher in IC50: 0.104 nM for the first, 181 nM for the second. The first is the more potent here.

Compared with `COc1nc(N(C)C)ncc1-c1cc2c(n1C(C)C)C(c1ccc(C#N)cc1)N([C@H]1CC[C@H](O)CC1)C2=O` (stereo partly drawn) [Example 174, 4-[2-(2-Dimethylamino-4-methoxy-pyrimidin-5-yl)-5-(trans-4-hydroxy-cyclohexyl)-1-isopropyl-4-oxo-1,4,5,6-tetrahydro-pyrrolo[3,4-b]pyrrol-6-yl]-benzonitrile], `COc1ncc(-c2cc3c(n2C(C)C)C(c2ccc(C#N)cc2)N([C@H]2CC[C@H](O)CC2)C3=O)c(OC)n1` (stereo partly drawn) [Example 173, 4-[2-(2,4-Dimethoxy-pyrimidin-5-yl)-5-(trans-4-hydroxy-cyclohexyl)-1-isopropyl-4-oxo-1,4,5,6-tetrahydro-pyrrolo[3,4-b]pyrrol-6-yl]-benzonitrile] is 8.1-fold higher in IC50: 1.67 nM for the first, 13.6 nM for the second. The first is the more potent here.

`COc1nc(N(C)C)ncc1-c1cc2c(n1C(C)C)C(c1ccc(C#N)cc1)N(c1cc(Cl)cn(C)c1=O)C2=O` (stereo not shown) [Example 131, 4-[5-(5-Chloro-1-methyl-2-oxo-1,2-dihydro-pyridin-3-yl)-2-(2-dimethylamino-4-methoxy-pyrimidin-5-yl)-1-isopropyl-4-oxo-1,4,5,6-tetrahydro-pyrrolo[3,4-b]pyrrol-6-yl]-benzonitrile] and `COc1nc(N(C)C)ncc1-c1cc2c(n1C(C)C)[C@H](c1ccc(C#N)cc1)N(c1ccc(F)c(Cl)c1)C2=O` [Example 169, 4-[(S)-5-(3-Chloro-4-fluoro-phenyl)-2-(2-dimethylamino-4-methoxy-pyrimidin-5-yl)-1-isopropyl-4-oxo-1,4,5,6-tetrahydro-pyrrolo[3,4-b]pyrrol-6-yl]-benzonitrile] are within 1.5-fold of each other in IC50: 0.295 nM for the first, 0.357 nM for the second.

`COc1ccc(C(=O)N2CCOCC2)cc1-c1cc2c(n1C(C)C)C(c1ccc(Cl)cc1)N(c1cc(Cl)ccc1C)C2=O` (stereo not shown) [Example 28, 5-(5-Chloro-2-methyl-phenyl)-6-(4-chloro-phenyl)-1-isopropyl-2-[2-methoxy-5-(morpholine-4-carbonyl)-phenyl]-5,6-dihydro-1H-pyrrolo[3,4-b]pyrrol-4-one] and `CNC(=O)c1ccc(OC)c(-c2cc3c(n2C(C)C)[C@H](c2ccc(Cl)cc2)N(c2cc(Cl)ccc2C)C3=O)c1` [Example 18, 3-[(S)-5-(5-Chloro-2-methyl-phenyl)-6-(4-chloro-phenyl)-1-isopropyl-4-oxo-1,4,5,6-tetrahydro-pyrrolo[3,4-b]pyrrol-2-yl]-4-methoxy-N-methyl-benzamide] are within 1.5-fold of each other in IC50: 0.106 nM for the first, 0.095 nM for the second.

`COc1ncc(-c2cc3c(n2C(C)C)C(c2ccc(C#N)cc2)N(c2cccc(Cl)c2F)C3=O)c(OC)n1` (stereo not shown) [Example 42, 4-[5-(3-Chloro-2-fluoro-phenyl)-2-(2,4-dimethoxy-pyrimidin-5-yl)-1-isopropyl-4-oxo-1,4,5,6-tetrahydro-pyrrolo[3,4-b]pyrrol-6-yl]-benzonitrile] and `COc1ncc(-c2cc3c(n2C(C)C)C(c2ccc(C#N)cc2)N(c2cc(Cl)ccc2C)C3=O)c(OC)n1` (stereo not shown) [Example 44, 4-[5-(5-Chloro-2-methyl-phenyl)-2-(2,4-dimethoxy-pyrimidin-5-yl)-1-isopropyl-4-oxo-1,4,5,6-tetrahydro-pyrrolo[3,4-b]pyrrol-6-yl]-benzonitrile] are within 1.5-fold of each other in IC50: 0.246 nM for the first, 0.167 nM for the second.

Compared with `COc1ccc(C(=O)N(C)C)cc1-c1cc2c(n1C(C)C)C(c1ccc(Cl)cc1)N(c1cc(Cl)ccc1C)C2=O` (stereo not shown) [Example 15, 3-[5-(5-Chloro-2-methyl-phenyl)-6-(4-chloro-phenyl)-1-isopropyl-4-oxo-1,4,5,6-tetrahydro-pyrrolo[3,4-b]pyrrol-2-yl]-4-methoxy-N,N-dimethyl-benzamide], `CNC(=O)c1ccc(OC)c(-c2cc3c(n2C(C)C)C(c2ccc(Cl)cc2)N(c2ccc(F)c(Cl)c2)C3=O)c1` (stereo not shown) [Example 53, 3-[5-(3-Chloro-4-fluoro-phenyl)-6-(4-chloro-phenyl)-1-isopropyl-4-oxo-1,4,5,6-tetrahydro-pyrrolo[3,4-b]pyrrol-2-yl]-4-methoxy-N-methyl-benzamide] is 2.4-fold higher in IC50: 0.133 nM for the first, 0.323 nM for the second.

First: COc1ncc(-c2cc3c(n2C(C)C)C(c2ccc(C#N)cc2)N(c2cc(Cl)c(=O)n(C)c2)C3=O)c(OC)n1 (stereo not shown) [Example 153, 4-[5-(5-Chloro-1-methyl-6-oxo-1,6-dihydro-pyridin-3-yl)-2-(2,4-dimethoxy-pyrimidin-5-yl)-1-isopropyl-4-oxo-1,4,5,6-tetrahydro-pyrrolo[3,4-b]pyrrol-6-yl]-benzonitrile]
Second: COc1ncncc1-c1cc2c(n1C(C)C)C(c1ccc(C#N)cc1)N(c1cc(Cl)c(=O)n(C)c1)C2=O (stereo not shown) [Example 236, 4-(5-(5-Chloro-1-methyl-6-oxo-1,6-dihydropyridin-3-yl)-1-isopropyl-2-(4-methoxypyrimidin-5-yl)-4-oxo-1,4,5,6-tetrahydropyrrolo[3,4-b]pyrrol-6-yl)benzonitrile]
The IC50 of the first is 7.1-fold lower: 0.422 nM for the first, 2.98 nM for the second. The first is the more potent here.

Going from `CNc1ncc(-c2cc3c(n2C(C)C)C(c2ccc(C#N)cc2)N(c2c[nH]c(=O)c(Cl)c2)C3=O)c(OC)n1` (stereo not shown) [Example 137, 4-[5-(5-Chloro-6-oxo-1,6-dihydro-pyridin-3-yl)-1-isopropyl-2-(4-methoxy-2-methylamino-pyrimidin-5-yl)-4-oxo-1,4,5,6-tetrahydro-pyrrolo[3,4-b]pyrrol-6-yl]-benzonitrile] to `COc1nc(N(C)C)ncc1-c1cc2c(n1C(C)C)C(c1ccc(C#N)cc1)N(c1cc(C)nn1C)C2=O` (stereo not shown) [Example 180, 4-[2-(2-Dimethylamino-4-methoxy-pyrimidin-5-yl)-5-(2,5-dimethyl-2H-pyrazol-3-yl)-1-isopropyl-4-oxo-1,4,5,6-tetrahydro-pyrrolo[3,4-b]pyrrol-6-yl]-benzonitrile], the IC50 rises from 0.321 nM to 0.647 nM (2-fold). The first is the more potent here.

First: COc1ccc(-c2cc3c(n2C(C)C)C(c2ccc(Cl)cc2)N(c2cc(Cl)ccc2C)C3=O)c(OC)n1 (stereo not shown) [Example 22, 5-(5-Chloro-2-methyl-phenyl)-6-(4-chloro-phenyl)-2-(2,6-dimethoxy-pyridin-3-yl)-1-isopropyl-5,6-dihydro-1H-pyrrolo[3,4-b]pyrrol-4-one]
Second: COc1ncc(-c2cc3c(n2C(C)C)C(c2ccc(Cl)cc2)N(c2cc(Cl)ccc2C)C3=O)c(OC)n1 (stereo not shown) [Example 14, 5-(5-Chloro-2-methyl-phenyl)-6-(4-chloro-phenyl)-2-(2,4-dimethoxy-pyrimidin-5-yl)-1-isopropyl-5,6-dihydro-1H-pyrrolo[3,4-b]pyrrol-4-one]
The IC50 of the first is 4.8-fold higher: 0.323 nM for the first, 0.068 nM for the second.

Going from `COc1ccccc1-c1cc2c(n1C(C)C)C(c1ccc(Cl)cc1C)N(c1cc(Cl)ccc1C)C2=O` (stereo not shown) [Example 30, 5-(5-Chloro-2-methyl-phenyl)-6-(4-chloro-2-methyl-phenyl)-1-isopropyl-2-(2-methoxy-phenyl)-5,6-dihydro-1H-pyrrolo[3,4-b]pyrrol-4-one] to `CNC(=O)c1ccc(OC)c(-c2cc3c(n2C(C)C)[C@@H](c2ccc(Cl)cc2C)N(c2cccc(Cl)c2F)C3=O)c1` [Example 8, 3-[(R)-5-(3-Chloro-2-fluoro-phenyl)-6-(4-chloro-2-methyl-phenyl)-1-isopropyl-4-oxo-1,4,5,6-tetrahydro-pyrrolo[3,4-b]pyrrol-2-yl]-4-methoxy-N-methyl-benzamide], the IC50 rises from 0.376 nM to 49 nM (130-fold).

`CNC(=O)Cc1cc(-c2cc3c(n2C(C)C)C(c2ccc(C#N)cc2)N(c2cccc(Cl)c2F)C3=O)c(OC)cn1` (stereo not shown) [Example 86, 2-{4-[5-(3-Chloro-2-fluoro-phenyl)-6-(4-cyano-phenyl)-1-isopropyl-4-oxo-1,4,5,6-tetrahydro-pyrrolo[3,4-b]pyrrol-2-yl]-5-methoxy-pyridin-2-yl}-N-methyl-acetamide] and `COC[C@@H](C)n1c(-c2cnc(N)nc2OC)cc2c1C(c1ccc(Cl)cc1)N(c1ccc(F)c(Cl)c1)C2=O` (stereo partly drawn) [Example 224, (R,S)-2-(2-Amino-4-methoxy-pyrimidin-5-yl)-5-(3-chloro-4-fluoro-phenyl)-6-(4-chloro-phenyl)-1-((R)-2-methoxy-1-methyl-ethyl)-5,6-dihydro-1H-pyrrolo[3,4-b]pyrrol-4-one] are within 1.5-fold of each other in IC50: 0.334 nM for the first, 0.362 nM for the second.

Going from `COc1nc(N(C)C)ncc1-c1cc2c(n1C(C)C)C(c1ccc(C#N)c(F)c1)N(c1cc(Cl)c[nH]c1=O)C2=O` (stereo not shown) [Example 201, 4-[5-(5-Chloro-2-oxo-1,2-dihydro-pyridin-3-yl)-2-(2-dimethylamino-4-methoxy-pyrimidin-5-yl)-1-isopropyl-4-oxo-1,4,5,6-tetrahydro-pyrrolo[3,4-b]pyrrol-6-yl]-2-fluoro-benzonitrile] to `COc1ncc(-c2cc3c(n2C(C)C)C(c2ccc(C#N)c(F)c2)N(c2cc(Cl)cn(C)c2=O)C3=O)c(OC)n1` (stereo not shown) [Example 198, 4-[5-(5-Chloro-1-methyl-2-oxo-1,2-dihydro-pyridin-3-yl)-2-(2,4-dimethoxy-pyrimidin-5-yl)-1-isopropyl-4-oxo-1,4,5,6-tetrahydro-pyrrolo[3,4-b]pyrrol-6-yl]-2-fluoro-benzonitrile], the IC50 rises from 0.25 nM to 0.691 nM (2.8-fold). The first is the more potent here.

For `COc1ncc(-c2cc3c(n2C(C)C)[C@@H](c2ccc(C#N)c(F)c2)N(c2cc(Cl)c(=O)n(C)c2)C3=O)c(OC)n1` [Example 238, (R)-4-(5-(5-Chloro-1-methyl-6-oxo-1,6-dihydropyridin-3-yl)-2-(2,4-dimethoxypyrimidin-5-yl)-1-isopropyl-4-oxo-1,4,5,6-tetrahydropyrrolo[3,4-b]pyrrol-6-yl)-2-fluorobenzonitrile], the IC50 was 126 nM.
